Biological target: JAK2 (Homo sapiens, UniProt O60674)
Test: cell-free kinase activity assay with purified JAK2 (HotSpot, Reaction Biology)
Format: biochemical

JAK2, sequence (O60674 whole entry): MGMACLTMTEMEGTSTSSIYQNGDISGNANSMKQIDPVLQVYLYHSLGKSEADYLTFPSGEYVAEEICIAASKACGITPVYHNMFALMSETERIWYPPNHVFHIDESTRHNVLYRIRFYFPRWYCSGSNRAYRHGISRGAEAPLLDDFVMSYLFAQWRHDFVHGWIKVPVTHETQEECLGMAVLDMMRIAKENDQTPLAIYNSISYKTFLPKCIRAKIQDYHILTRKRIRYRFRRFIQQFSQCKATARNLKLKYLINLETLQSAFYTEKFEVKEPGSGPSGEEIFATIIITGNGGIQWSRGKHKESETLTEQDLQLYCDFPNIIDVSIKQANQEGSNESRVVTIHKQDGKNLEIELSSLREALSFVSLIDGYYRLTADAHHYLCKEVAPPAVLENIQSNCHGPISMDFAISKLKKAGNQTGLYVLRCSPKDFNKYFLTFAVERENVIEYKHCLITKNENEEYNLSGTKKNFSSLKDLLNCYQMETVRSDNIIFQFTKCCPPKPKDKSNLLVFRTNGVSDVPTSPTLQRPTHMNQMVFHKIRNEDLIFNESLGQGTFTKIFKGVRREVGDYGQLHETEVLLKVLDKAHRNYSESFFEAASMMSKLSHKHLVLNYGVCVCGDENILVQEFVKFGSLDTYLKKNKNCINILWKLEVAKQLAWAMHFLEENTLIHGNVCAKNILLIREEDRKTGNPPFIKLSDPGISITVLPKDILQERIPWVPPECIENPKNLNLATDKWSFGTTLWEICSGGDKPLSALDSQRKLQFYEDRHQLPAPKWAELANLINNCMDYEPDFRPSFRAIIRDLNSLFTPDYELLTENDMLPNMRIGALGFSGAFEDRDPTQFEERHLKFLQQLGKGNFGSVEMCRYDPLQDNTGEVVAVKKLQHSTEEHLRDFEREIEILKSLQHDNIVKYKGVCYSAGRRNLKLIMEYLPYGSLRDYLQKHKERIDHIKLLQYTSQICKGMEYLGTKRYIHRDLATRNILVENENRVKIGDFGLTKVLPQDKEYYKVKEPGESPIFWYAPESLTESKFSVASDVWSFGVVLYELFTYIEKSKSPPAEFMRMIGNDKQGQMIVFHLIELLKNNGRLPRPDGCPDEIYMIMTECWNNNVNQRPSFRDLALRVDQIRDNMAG

Compound `COc1cc(/C=C/C(=O)CC(=O)/C=C/c2ccc(O)c(OC)c2)ccc1O` [curcumin] has an IC50 of roughly 8 µM.

— article PMC6280482, “The natural polyphenol curcumin induces apoptosis by suppressing STAT3 signaling in esophageal squamous cell carcinoma” (Journal of Experimental & Clinical Cancer Research : CR, 2018)
